As a reminder, the EC50 is the concentration at which the effect is half-maximal.

The source of these data is PMC9585581, “Developing Photoaffinity Probes for Dopamine Receptor D2 to Determine Targets of Parkinson’s Disease Drugs” (ACS Chemical Neuroscience, 2022).

The target in one data set is T1, human DRD2, long form (Homo sapiens, UniProt P14416).
T1 construct: expressed in transfected cells; Gqi5 chimera transiently transfected
Description: Intracellular Ca2+ mobilization assay (HEK293T stably expressing DRD2, chimeric G-protein Gqi5, calcium dye, confocal microscopy). In kind it is cell-based. The note with it: for activity in calcium flux assay (in words): calcium flux bioactivity. As for the experimental part:
Intracellular calcium measurement was used to determine G-protein-mediated signaling by DRD2. Because DRD2 is linked to the G-protein subtype Gi, agonist binding inhibits adenyl cyclase activity.[42] To mitigate this effect, we created an HEK293T cell line stably expressing human DRD2, long form, and a chimeric G-protein, Gqi, which alters the DRD2 receptor’s G-protein coupling so that signaling can occur through Gq, resulting in an intracellular calcium flux.[43] The assay is performed by first loading the cell line with a calcium-sensing dye. Binding of the ligand to the receptor results in an influx of calcium to the cytoplasm, which can be characterized in real time by monitoring the increase in dye fluorescence with confocal microscopy.
Figure 2 Intracellular calcium flux assay. HEK293T cell line stably expressing constructs for human DRD2 and a chimeric G-protein is loaded with calcium-sensing dye, […]. After dosing the probe, confocal microscopy is used to determine the calcium flux in the cell by change in dye fluorescence.
A stable HEK293T-derived cell line-expressing DRD2-Strep Tag II fusion was maintained in DMEM supplemented with 10% FBS, 100 U/mL penicillin, and 100 μg/mL streptomycin in a humidified atmosphere at 37 °C in 5% CO2. On day 1, cells were plated at a density of 4 × 10^4 cells/cm^2 in a poly-D-lysine-coated 18-well chambered coverslip (Ibidi). The following day (day 2), cells were transfected with a 10× solution of 3:1 mixture of Gqi5/Optifect Transfection Reagent (Thermo) in unsupplemented DMEM. On day 3, the transfection media was removed and calcium-sensitive dye loading was performed following the protocol of the Fluo-4 Direct Calcium Assay Kit (Invitrogen). 5× drug stimulation solutions were prepared in filter-sterilized HBSS. Once Fluo-4 loading was complete, a time series acquisition at a rate of 1 fps was recorded using a Zeiss LSM 980 with Airyscan 2. Basal fluorescence was recorded for 20 s, followed by the addition of drug solution to a 1× final concentration and acquisition for an additional 40 s. Results in the form of fold fluorescence increase over basal were averaged over 50 cells in ImageJ (NIH), and GraphPad Prism was used for the analysis of data.
For orientation: Calcium assays in cells follow changes in intracellular calcium, usually with a dye or a luminescent sensor.

In data set [1] the target is T2, DRD2 (Homo sapiens, UniProt P14416). Description: Western blot analysis of DRD2-probe binding with competition by parent pharmacophore. Also on record: expressed in transfected cells. The note with it: probe 100 nm; membrane fraction enriched via Strep Tag II. An excerpt: To observe the photo-cross-linking of DRD2 at the protein level, we analyzed the colocalization of DRD2 by clicking a fluorophore on the probe and performing Western blots. We further observed the competition with the parent pharmacophore of each probe and the ability of a negative control benzophenone (16) to cross-link to DRD2. Our DRD2-expressing cells or unmodified 293T cells (control group) were suspended in media, treated with the probe at a 100 nm concentration, and photo-cross-linked. The cells were then lysed, and the membrane fraction was separated and enriched for DRD2 by pulldown of the Strep Tag II fusion using magnetic beads. After “clicking” a fluorescent tag to the probe, the membrane fraction was run on an SDS-PAGE gel, transferred to a nitrocellulose membrane, and treated with antibodies against DRD2 and Strep Tag II. […] We also observed many nonspecific binding bands for the probe, which is consistent with our other studies, as well as the observations of the field when it relates to photo-cross-linking groups. […] With this confirmation, we proceeded to proteomic analysis of probe interactions.
T2 sequence (P14416 whole entry, the tested form may be a part): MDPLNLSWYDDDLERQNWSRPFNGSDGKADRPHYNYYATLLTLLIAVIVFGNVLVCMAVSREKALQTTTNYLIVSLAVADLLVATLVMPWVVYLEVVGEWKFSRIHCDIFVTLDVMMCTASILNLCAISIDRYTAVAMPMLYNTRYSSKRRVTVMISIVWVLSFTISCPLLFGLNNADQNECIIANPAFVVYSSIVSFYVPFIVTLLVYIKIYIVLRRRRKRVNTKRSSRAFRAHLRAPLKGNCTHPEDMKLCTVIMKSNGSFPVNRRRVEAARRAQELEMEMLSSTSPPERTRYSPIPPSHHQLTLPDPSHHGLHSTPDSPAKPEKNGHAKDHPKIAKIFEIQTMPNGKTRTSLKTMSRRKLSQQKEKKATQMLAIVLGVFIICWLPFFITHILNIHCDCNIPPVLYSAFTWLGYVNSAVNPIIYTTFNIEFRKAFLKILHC
Figure 6 Photo-cross-linking of probes 5 and 7 to DRD2 visualized with Western blot. Lanes 1–5 correspond to samples with probe 5 at 100 nm, lanes 6–10 correspond to samples treated with probe 7 at 100 nm, and lanes 11–14 correspond to samples treated with negative control probe 16. Lanes: 1, 6, and 11 are the anti-DRD2 antibody channel, lanes 2, 3, 7, 8, and 12 are fluorescence of the Alexa Fluor 555 clicked to the probes 5, 7, or 16, lanes 4, 9, and 13 are the anti-Strep Tag antibody channel, and lanes 5, 10, and 14 are the overlaid channels for the respective probes.
A stable HEK293T-derived cell line-expressing DRD2-Strep Tag II fusion was maintained in DMEM supplemented with 10% FBS, 100 U/mL penicillin, and 100 μg/mL streptomycin in a humidified atmosphere at 37 °C in 5% CO2. Cells were plated at a density of 4 × 10^4 cells/cm^2 in T300 tissue culture flasks (CellTreat) and allowed to grow to an 80% confluency. At confluency, media was removed and cells were washed once with cold HBSS, followed by incubation for 15 min in cold HBSS with 0.53 mM EDTA. Following incubation, cells were scraped off of the bottom of the flask and the cell suspension was transferred to a 15 mL conical tube and then pelleted at 500g for 5 min. The supernatant was removed, and the cell pellet was resuspended in HBSS followed by centrifugation at 500g for 5 min. […] The supernatant of the cell pellet was removed, and the cells were resuspended in probe solution and incubated at room temperature for 2 min followed by centrifugation at 500g for 5 min. The cell pellet was resuspended in either HBSS or 50 μM competitor solution in HBSS and irradiated with a 365 nm UV lamp (8 W, 2 cm distance) for 30 min at room temperature. The cells were then pelleted at 500g for 5 min, and the supernatant was removed. Membrane fractionation was performed following the MEM-PER Membrane Protein Extraction Kit (Thermo). The solubilized membrane fraction was incubated with hydrophilic streptavidin magnetic beads (NEB) for 1 h at room temperature. The flow-through was removed, and the beads were washed twice with PBS. […]
(In general: A western blot detects proteins with antibodies after separation by electrophoresis.)

Data set [2] deals with T2, DRD2. Description: PRESTO-TANGO β-arrestin recruitment assay (HTLA cells transfected with DRD2-TANGO, luciferase readout). In kind it is cell-based. Also on record: TEV protease site and fused transcription factor (TANGO module); expressed in transfected cells; host or cells: HTLA cells (gift of G. Barnea), transiently transfected. Particulars: for activity in β-arrestin recruitment (in words): PRESTO-TANGO. An excerpt: To characterize the response of the β-arrestin effector pathway to our ligands, we used the Parallel-Receptor-ome Expression and Screening via Transcriptional Output TANGO (PRESTO-TANGO) assay developed in the Roth lab.[44],[45] This assay uses luciferase activity to monitor β-arrestin recruitment by DRD2 (Figure 3a).
Figure 3 β-Arrestin recruitment analysis. (a) PRESTO-TANGO assay schematic: a ligand binds a chimeric DRD2 receptor, which then recruits β-arrestin fused with a TEV protease. The protease cuts a site between the receptor and a fused transcription factor, which then transits to the […] to initiate transcription of a luciferase gene. The luciferase activity is subsequently quantified.
HTLA cells were a gift from the laboratory of G. Barnea and were maintained in DMEM supplemented with 10% FBS, 100 U/mL penicillin, 100 μg/mL streptomycin, 2 μg/mL puromycin, 100 μg/mL hygromycin B, and 100 μg/mL G418 in a humidified atmosphere at 37 °C in 5% CO2. On day 1, cells were plated at a density of 1 × 10^5 cells/cm^2 in a black wall, clear-bottom 96-well plate (Nunc). The following day (day 2), cells were transfected with a 10× solution of 3:1 mixture of DRD2-TANGO/Optifect Transfection Reagent (Thermo) in unsupplemented DMEM. On day 3, 1× drug stimulation solutions were prepared in filter-sterilized unsupplemented DMEM. The transfection media was shaken or aspirated from the wells, and drug stimulation solutions were gently added. On day 4, drug solutions were removed from one well every 10 s (to maintain consistency of incubation time) and 50 μL per well of Bright-Glo solution (Promega) diluted 20-fold in HBSS was added. After incubation for 2 min at room temperature, luminescence was counted with an integration time of 10 s in a Spectramax i3x plate reader (Molecular Devices).
(In general: Arrestin recruitment assays detect the binding of arrestin to an activated receptor.)

The conditions of data set [3]: cited from earlier work.
Another data set concerns Dopamine receptor D1. The note with it: stated without reference; cited from earlier work.

T1 sequence (P14416 whole entry): as the sequence (P14416 whole entry, the tested form may be a part) above

As to `C#CCCC1(CCC(=O)N[C@H]2CCc3nc(N)sc3C2)N=N1` [Compound 8, (S)-N-(2-Amino-4,5,6,7-tetrahydrobenzo[d]thiazol-6-yl)-3-(3-(but-3-yn-1-yl)-3H-diazirin-3-yl)propanamide], the “activity in calcium flux assay (in words)” value on human DRD2, long form is on record as “greatly diminished activity”.
Regarding `C#CCOc1ccc(C(=O)c2ccc(CN)cc2)cc1` [Compound 16, reference compound], at DRD2 [1], the “photo-cross-linking / colocalization with DRD2 band (Western blot)” value was “did not show colocalization with the DRD2 band”.
For `C#CCCC1(CCC(=O)N(CCC)CCc2cccc3c2CC(=O)N3)N=N1` [Compound 4, 3-(3-(But-3-yn-1-yl)-3H-diazirin-3-yl)-N-(2-(2-oxoindolin-4-yl)ethyl)-N-propylpropanamide], on human DRD2, long form, the “activity in calcium flux assay (in words)” value is “greatly diminished activity”.
As to `CCCN(CCC)CCc1cccc2c1CC(=O)N2` [ropinirole, reference compound], the EC50 on human DRD2, long form (Ca assay, HEK293T stably expressing human DRD2 and chimeric G-protein, Hill slope of 1.0) came out at 124 nM; on DRD2 [2] (PRESTO-TANGO β-arrestin recruitment, luciferase activity, Hill slope of 1.0), 6.14 nM. In addition, on DRD2 [2], the “activity in β-arrestin recruitment (in words)” value is given as “low nanomolar activity”.
For the molecule `CCCN[C@H]1CCc2nc(N)sc2C1` [pramipexole], in data set [3], the “patients experiencing adverse drug reactions” value was at most 74%. Besides, in the data set on Dopamine receptor D1, the “binding to dopamine receptor D1 (in words)” value is “bound poorly”. In addition, the “activity in β-arrestin recruitment (in words)” value on DRD2 [2] is listed as “low nanomolar activity”.
